For assay [1], the system named is MEF. Description: Cytotoxicity against p53-/- mouse MEF cells harboring H-RasV12 after 48 hrs by MTT assay. The class given is functional, cell-based. For orientation: Formazan colour is commonly taken as a measure of viable cells.
Assay [2] relates to MEF. Description: Cytotoxicity against mouse MEF cells harboring H-RasV12 and p53 N236S mutant after 48 hrs by MTT assay. The assay is classed as functional, cell-based.
Assay [3] deals with MEF. The assay can be described thus: Cytotoxicity against mouse wild type MEF cells after 48 hrs by MTT assay. The class given is cell-based.

By IC50 is commonly meant the concentration that gives 50% inhibition. A higher IC50 goes with a need for much substance. Regarding `CC(=O)O[C@@H]1C[C@@]23C[C@@]24CC[C@H](O)C(C)(C)[C@@H]4CC[C@H]3[C@]2(C)C[C@@H]3OC(=O)C[C@@H](C)[C@@H]3[C@@]12C`, it took 7.5 µM to reach half-maximal inhibition in the assay with MEF [1] (IC50). For the molecule `C[C@@H]1C[C@@]2(O[C@H]3C[C@@]4(C)[C@@H]5CC[C@H]6C(C)(C)[C@@H](O)CC[C@@]67C[C@@]57C[C@@H](O)[C@]4(C)[C@@H]13)O[C@H](O)[C@]1(C)O[C@H]21` [ACTEOL], the IC50 with MEF [1] came to 7.4 µM. For `C=C(C)[C@@H]1O[C@]23O[C@@H]1C[C@@H](C)[C@@H]2[C@@]1(C)CC[C@@]24C[C@@]25CC[C@H](O)C(C)(C)[C@@H]5CC[C@H]4[C@]1(C)[C@H]3O`, 6.2 µM corresponded to half-maximal inhibition in the assay on MEF [1] (IC50). The IC50 values of the last two molecules are within 1.5-fold of each other. With `C[C@@H]1C[C@]2(OC[C@](C)(O)[C@H]2O)O[C@H]2C[C@@]3(C)C4=CC[C@H]5C(C)(C)[C@@H](O)CC[C@]5(C)C4=CC[C@]3(C)[C@@H]12`, the IC50 was determined as 8.6 µM with MEF [2] and 6 µM in the assay with MEF [3]. As to `C[C@@H]1C[C@H]2O[C@]3(O[C@@H]2C(C)(C)O)[C@H]1[C@@]1(C)CCC2=C(CC[C@H]4C(C)(C)[C@@H]5CC[C@@]4(C2)O5)[C@]1(C)[C@H]3O` [ACERINOL], the concentration for half-maximal inhibition (IC50) in the assay on MEF [1] was found to be 10.2 µM.

In the case of `C[C@@H]1C[C@]2(OC[C@](C)(O)[C@H]2O)O[C@H]2C[C@@]3(C)C4=C(C[C@@H](O)[C@]3(C)[C@@H]12)[C@@]1(C)CC[C@H](O)C(C)(C)[C@@H]1CC4`, the IC50 in the assay with MEF [2] was 5.5 µM; in the assay on MEF [3], 14.5 µM. In the assay with MEF [1], `C[C@@H]1C[C@H]2O[C@@]3(O[C@@H]2C(C)(C)O)[C@H]1[C@@]1(C)[C@H](O)C[C@@]24C[C@@]25CC[C@H](O)C(C)(C)[C@@H]5CC=C4[C@]1(C)[C@H]3O` yielded a concentration for half-maximal inhibition (IC50) of 9.8 µM.
